Assay results taken from patent US20010044463A1, “Methods for controlling gram negative bacteria in mammals” (priority 1997, published 2001).

Tests used:
H. pylori ATCC 43504 = test: Minimum Inhibitory Concentration (MIC) blood agar plate growth inhibition; type: cell-based, Helicobacter pylori
Description: Subsequent dilutions were made in ethanol immediately prior to use. […] Subsequent dilutions were made in BHI medium (Brain heart infusion broth, Difco #0037-07-0) immediately prior to use.
(§1) Blood agar base (BAB) was prepared containing 1.5% agar and autoclaved. 20 ml samples of autoclaved BAB were poured into 50 mL tubes and placed in a 56° C. water bath.
The mixed media preparation was poured into a petri dished and allowed to solidify.
(§2) Prior to inoculation of petri plates, bacteria or cultures were examined for morphology under a phase microscope to confirm motility and physical characteristics, e.g., spiral shaped. The organisms were washed off the plate into PBS (Phosphate buffered saline) (80.0 g NaCl, 2.0 g KCl, 2.4 g KH2PO4 11.5 g Na2HPO4 or 24.4 g Na2HPO4/2H2O per 1 liter deionized water, pH 7.2, sterilized by autoclaving) and diluted into BHI at a concentration of 10^8/ml (O.D. of 0.3 units diluted 1:30). Ten microliters of solution containing 10^6 organisms were spread onto a petri plate and grown under microaerophilic conditions for 3 days unless specified. Control organisms were grown under microaerophilic conditions.
(§3) Inhibition of growth was determined by the amount of colonies present within the petri plate. The following factors were used for growth inhibition: ±=0-20 colonies, +=20-50 colonies, ++=50-200 colonies and +++=200+ colonies.

[1] = test system: H. pylori (urease negative) (Wild strain of ATCC 43504); test: as above; type: cell-based, Helicobacter pylori; settings: Table III
Description: (§4) Monensin (Sigma Cat. No. M-5273) was dissolved in 100% absolute ethanol (AAPER Alcohol and Chemical Co.) at a concentration of 20 mg/ml. Subsequent dilutions were made in ethanol immediately prior to use. Nigericin (Sigma Cat. No. N-7143) was dissolved in DMSO at 2 mg/ml. Subsequent dilutions were made in BHI medium (Brain heart infusion broth, Difco #0037-07-0) immediately prior to use.
as §1
(§5) 100 μl of a drug (final concentration equivalent to 1:200 of original concentration) and 1.2 ml of sheep blood (Colorado Senun Company # CS-1112) (blood diluted in a 1:1 buffer providing a 3% concentration of blood per 20 ml medium sample) were added to 20 ml sample of media and mixed. The mixed media preparation was poured into a petri dished and allowed to solidify.
as §2, §3

Staph ATCC 14775 = test: Blood agar plate growth inhibition, control organism; type: cell-based; settings: Table XIV, Non-microaerophilic conditions
Description: as §4, §1, §5
as §2, with “Control organisms were grown under microaerophilic conditions.” left out
as §3

[2] = final drug concentration 0.1 ng/ml
[3] = final drug concentration 10 ng/ml
[4] = final drug concentration 100 ng/ml
[5] = final drug concentration 1 μg/ml
[6] = final drug concentration 10 μg/ml

## CO[C@@H]1C[C@@H](C[C@H]2CC[C@H](C)[C@H]([C@@H](C)C(=O)O)O2)O[C@]2(O[C@](C)([C@H]3CC[C@@](C)([C@@H]4O[C@@H]([C@H]5O[C@@](O)(CO)[C@H](C)C[C@@H]5C)C[C@@H]4C)O3)C[C@H]2C)[C@@H]1C [Nigericin, nigericin]
H. pylori ATCC 43504; Table I, final drug concentration 0.1 ng/ml
  growth (amount of colonies present within the petri plate): (+++) (+++=200+ colonies)
H. pylori ATCC 43504; Table I, final drug concentration 1 ng/ml
  growth (amount of colonies present within the petri plate): (+++) (+++=200+ colonies)
H. pylori ATCC 43504; Table I, final drug concentration 10 ng/ml
  growth (amount of colonies present within the petri plate): (+++) (+++=200+ colonies)
H. pylori ATCC 43504; Table I, final drug concentration 100 ng/ml
  growth (amount of colonies present within the petri plate): (++) (++=50-200 colonies)
H. pylori ATCC 43504; Table I, final drug concentration 1 μg/ml
  growth (amount of colonies present within the petri plate): No growth
H. pylori ATCC 43504; Table I, final drug concentration 10 μg/ml
  growth (amount of colonies present within the petri plate): No growth
H. pylori ATCC 43504; Table II, urease positive, final drug concentration 1 ng/ml
  growth (amount of colonies present within the petri plate): (+++) (+++=200+ colonies)
H. pylori ATCC 43504; Table II, urease positive, final drug concentration 10 ng/ml
  growth (amount of colonies present within the petri plate): (+++) (+++=200+ colonies)
H. pylori ATCC 43504; Table II, urease positive, final drug concentration 1 μg/ml
  growth (amount of colonies present within the petri plate): No growth
H. pylori ATCC 43504; Table II, urease positive, final drug concentration 10 μg/ml
  growth (amount of colonies present within the petri plate): No growth
H. pylori ATCC 43504; Table II, urease positive, final drug concentration 0.1 nglml
  growth (amount of colonies present within the petri plate): (+++) (+++=200+ colonies)
H. pylori ATCC 43504; Table IV, urease positive, final drug concentration 0.1 ng/ml
  growth (amount of colonies present within the petri plate): (+++) (+++=200+ colonies)
H. pylori ATCC 43504; Table IV, urease positive, final drug concentration 1 ng/ml
  growth (amount of colonies present within the petri plate): (+++) (+++=200+ colonies)
H. pylori ATCC 43504; Table IV, urease positive, final drug concentration 10 ng/ml
  growth (amount of colonies present within the petri plate): (+++) (+++=200+ colonies)
H. pylori ATCC 43504; Table IV, urease positive, final drug concentration 100 ng/ml
  growth (amount of colonies present within the petri plate): (+++) (+++=200+ colonies)
H. pylori ATCC 43504; Table IV, urease positive, final drug concentration 1 μg/ml
  growth (amount of colonies present within the petri plate): No growth
H. pylori ATCC 43504; Table IV, urease positive, final drug concentration 10 μg/ml
  growth (amount of colonies present within the petri plate): No growth
H. pylori ATCC 43504; Table V, in the presence of 10 mM urea, final drug concentration 0.1 ng/ml, Nigericin assay done in duplicate
  growth (amount of colonies present within the petri plate): (+++)^1 (+++=200+ colonies)
H. pylori ATCC 43504; Table V, in the presence of 10 mM urea, final drug concentration 1 ng/ml, Nigericin assay done in duplicate
  growth (amount of colonies present within the petri plate): (+++)^1 (+++=200+ colonies)
H. pylori ATCC 43504; Table V, in the presence of 10 mM urea, final drug concentration 10 ng/ml, Nigericin assay done in duplicate
  growth (amount of colonies present within the petri plate): (++)^1 (++=50-200 colonies)
H. pylori ATCC 43504; Table V, in the presence of 10 mM urea, final drug concentration 100 ng/ml, Nigericin assay done in duplicate
  growth (amount of colonies present within the petri plate): (+++)^1 (+++=200+ colonies)
H. pylori ATCC 43504; Table V, in the presence of 10 mM urea, final drug concentration 1 μg/ml, Nigericin assay done in duplicate
  growth (amount of colonies present within the petri plate): (±)^1 (±=0-20 colonies)
H. pylori ATCC 43504; Table V, in the presence of 10 mM urea, final drug concentration 10 μg/ml, Nigericin assay done in duplicate
  growth (amount of colonies present within the petri plate): No growth^1
H. pylori ATCC 43504; Table VI, in the presence of 2.5 mM urea, final drug concentration 1 ng/ml
  growth (amount of colonies present within the petri plate): (+++) (+++=200+ colonies)
H. pylori ATCC 43504; Table VI, in the presence of 2.5 mM urea, final drug concentration 10 ng/ml
  growth (amount of colonies present within the petri plate): (+++) (+++=200+ colonies)
H. pylori ATCC 43504; Table VI, in the presence of 2.5 mM urea, final drug concentration 1 μg/ml
  growth (amount of colonies present within the petri plate): (±) (±=0-20 colonies)
[1]; [2]
  growth (amount of colonies present within the petri plate): (+++) (+++=200+ colonies)
[1]; [3]
  growth (amount of colonies present within the petri plate): (+++) (+++=200+ colonies)
[1]; [4]
  growth (amount of colonies present within the petri plate): (+++) (+++=200+ colonies)
[1]; [5]
  growth (amount of colonies present within the petri plate): No growth
[1]; [6]
  growth (amount of colonies present within the petri plate): No growth
Staph ATCC 14775; [2]
  growth (amount of colonies present within the petri plate): (+++) (+++=200+ colonies)
Staph ATCC 14775; final drug concentration 1 ng/ml
  growth (amount of colonies present within the petri plate): (+++) (+++=200+ colonies)
Staph ATCC 14775; [3]
  growth (amount of colonies present within the petri plate): (+++) (+++=200+ colonies)
Staph ATCC 14775; [4]
  growth (amount of colonies present within the petri plate): (+++***) (+++=200+ colonies)
Staph ATCC 14775; [5]
  growth (amount of colonies present within the petri plate): No growth
Staph ATCC 14775; [6]
  growth (amount of colonies present within the petri plate): No growth
